# Measurements as given in patent US7442783B2, “Natural IgM antibodies and inhibitors thereof” (The CBR Institute for Biomedical Research, Inc., priority 2004, dated 2008).
# “And” between values parts separate entries of the source, which are not always exact repeats. Identical values can stand only once.
# B1: IgM^CM-22: natural IgM produced from hybridoma PTA-3507; heavy chain SEQ ID NO: 2, light chain SEQ ID NO: 8 (antibody, listed as Mus musculus)
# heavy: QVQLQQSGAELVKPGASVKISCKASGYAFSSYWMNWVKQRPGKGLEWIGQIYPGDGDTNYNGKFKGKATLTADKSSSTAYMQLSSLTSEDSAVYFCAREDYYGSDWYFDVWGTGTTVTVSSGKLAFFFLHIPF
# light: IVMTQSAASLAVSLGQRATISYRASKSVSTSGYSYMHWNQQKPGQPPRLLIYLVSNLESGVPARFSGSGSGTDFTLNIHPVEEEDAATYYCQHIRELTRSEGGPSWK
# Columns and labels:
# [1] = tested on: RAG-1^−/− mice; assay: Intestinal RI model in reconstituted RAG-1^−/− mice (histopathology, immunohistochemistry); format: in vivo, mouse; details: for mean pathology score: 40 min ischemia, 3 h reperfusion
# Procedure: (§1) Surgical protocol for RI was performed as previously described (Zhang et al. (2004) PNAS USA 101:3886-91). […] After 40 minutes of ischemia, the microclip was removed, and reperfusion of the mesenteric vasculature was confirmed by the return of pulsation to the vascular arcade and a change to pink color. The incision was closed, and all animals kept warm for 3 hours. Reconstituted RAG-1^−/− animals received either IgM mixed with peptide or saline in 0.2 ml volume intravenously 30 min before the initial laparotomy. WT animals were treated with saline or peptide i.v. 5 minutes prior to reperfusion. At the end of reperfusion, the ischemic segment of the jejunum was harvested and the central 4 cm was cut for pathological analysis.
# (§2) Cryostat sections of intestinal tissues were stained by hematoxylin and eosin (H&E) and examined by light microscopy for mucosal damage. Pathology score was assessed based on procedure by Chiu (Chiu et al, Arch Surg 101: 484-488, 1970; Chiu, et al, Arch Surg 101: 478-483, 1970) that included direct inspection of all microvilli over a 4 cm stretch of jejuneum as described. Zhang et al. (2004) PNAS USA 101:3886-91. For immuno-fluorescence, cryosections fixed with 4% (w/v) paraformaldehyde were incubated for varying periods with either biotin-labeled anti-mouse IgM (Becton Dickinson, Calif.) followed by 1 hour with streptavidin-Alexa-568 (1:500 dilution, Molecular Probes, Oreg.). C4 deposition was detected by staining with FITC-labeled rabbit anti-huC4c (DAKO, Colo.), followed by anti-rabbit-Alexa 488 (Molecular Probes, Oreg.). The specificity of anti-C4c staining was confirmed by staining serial sections with biotin-labeled anti-mouse C4 for 1 hour followed by streptavidin-FITC (Becton Dickinson, Calif.). C3 deposition was detected by treating with FITC-labeled anti-C3 (DAKO, Colo.). Sections were mounted in Anti-fade Mounting Medium with DAPI (Molecular Probes, Oreg.).
# [2] = biological target: IgM^CM-22; assay: SPR analysis of peptide binding to IgM^CM-22-coupled surface; parameters: species or system mouse; details: calculated from steady-state response levels, 1:1 Langmuir fit; mean±SD, n=2; 25° C.
# Procedure: FIG. 9A is a graph showing the surface plasmon resonance for the self-peptide N2. Binding isotherms for samples of the self-peptide N2 with concentration from 10.5 μM to 120 μM injected over the IgM^CM-22-coupled surface.
# FIG. 9B is a graph showing the surface plasmon resonance for a control peptide. Binding isotherm for a same-length, random-sequence control peptide (AGCMPYVRIPTA; SEQ ID NO: 62), injected at a concentration of 117 μM over the IgM^CM-22-coupled surface.
# (§3) An IgM (IgM^CM-22 or IgM^CM-31) antibody was immobilized by amine coupling in a BiaCore SPR CM5™ chip flowcell at a density of 33,400 response units (RU) ˜33 ng/mm^2 as described. Vorup-Jensen et al, PNAS USA 100: 1873-1878, 2003. Briefly, a reference flow cell was prepared by coupling of ethanolamine-HCl. Peptides, diluted in PBS running buffer, were flowed separately over the IgM-coupled surface and the reference at a rate of 10 μl/min at 25° C. and with the data collection rate at 10 Hz. […] Binding isotherms were derived by subtracting the response in the reference cell from the response of the IgM-coupled surface. Following each run, the surface was regenerated by injecting 40 μl 0.05% (v/v) polyoxyethylenesorbitan monolaureate/PBS.
# [3] = tested on: IgM^CM-31; assay: SPR analysis of peptide binding to control IgM^CM-31-coupled surface; parameters: species or system mouse; details: peptide injected at 120 μM
# Procedure: FIG. 9D is a graph showing the binding isotherm for the injection of the self-peptide N2 at 120 μM over a surface coupled with the control IgM^CM-31.
# as §3
# [4] = tested on: WT mice; assay: Intestinal RI model in wild type mice (histopathology, immunohistochemistry); format: in vivo, mouse; details: peptide i.v. five minutes prior to reperfusion
# Procedure: as §1, §2
# [5] = tested on: IgM^CM-22; assay: Titration of peptide with IgM^CM-22; parameters: species or system mouse; details: previous titration of peptide with IgM^CM-22
# [6] = biological target: IgM^CM-22; assay: ELISA: synthetic peptide P8 inhibits IgM^CM-22 binding of phage clone P8; parameters: species or system mouse; details: peptide added to IgM^CM-22-coated plate prior to 5×10^11 PFU phage; estimated; read-out: concentration of P8 peptide yielding 50% inhibition of phage P8 binding to IgM^CM-22
# Procedure: FIG. 6B is a bar graph showing that the synthetic peptide P8 inhibits IgM^CM-22 binding of phage clone P8. ELISA was performed with varying concentrations of the synthetic peptide P8 added to the IgM^CM-22-coated plate prior to the addition of 5×10^11 PFU phage. The results are representative of at least three independent experiments.
# (§4) ELISA was performed as described earlier (Zhang et al. (2004) PNAS USA 101:3886-91). Briefly, IgM binding to phage or phage-specific peptides was determined by coating a 96-well plate with saturating amounts of antigen. Subsequent to blocking, IgM was added (1 or 10 μg/ml) for 2 hr at 37° C. Plates were washed and then developed with alkaline phosphatase-labeled goat anti-mouse IgM (Sigma, MO). Binding of IgM to NMHC-II was determined by culturing 96-well plates previously coated with specific rabbit antibody (NMHC-II A & B; Covance Research Products; NMHC-II C a gift from Dr. Adelstein, NHLBI, NIH, Bethesda, Md.) or pan-myosin Hc (Sigma, Mo.) with intestinal lysates prepared from IgM^CM-22 reconstituted RAG-1^−/− mice either sham treated or treated for ischemia as described (Zhang et al. (2004) PNAS USA 101:3886-91). Lysates were prepared as described for immune precipitation (see below). Alkaline-phosphatase labeled goat anti-mouse IgM (Sigma, Mo.) was then used to detect bound IgM. […]
# [7] = tested on: IgM^CM-22; assay: ELISA screening of M-13 phage clones on IgM^CM-22-coated plate; format: binding, mouse; details: five phage clones compared, ELISA (FIG. 6A)
# Description: FIG. 6A is a graph showing the ELISA screening of M-13 phage-display library for IgM^CM-22-specific peptides. Symbols: […]-P1 clone; X-P2 clone, ∘-P7 clone; ⋄-P8 clone. The plate was coated with a solution of IgM^CM-22 before addition of varying concentrations of phage-clones. The results are representative of at least three independent experiments.
# A 12-mer M-13 phage display library (New England Biolab, Mass.) was screened by 4 rounds with MBL-beads coated with IgM^CM-22 and 2 rounds with IgM^CM-75 according to the manufacturer's recommendation. Phage clones were selected from the enriched pool and the nucleotide sequence of the relevant phage gene determined for at least ten clones. […]
# ELISA was performed as described earlier (Zhang et al. (2004) PNAS USA 101:3886-91). Briefly, IgM binding to phage or phage-specific peptides was determined by coating a 96-well plate with saturating amounts of antigen. […] Binding of IgM to NMHC-II was determined by culturing 96-well plates previously coated with specific rabbit antibody (NMHC-II A & B; Covance Research Products; NMHC-II C a gift from Dr. Adelstein, NHLBI, NIH, Bethesda, Md.) or pan-myosin Hc (Sigma, Mo.) with intestinal lysates prepared from IgM^CM-22 reconstituted RAG-1^−/− mice either sham treated or treated for ischemia as described (Zhang et al. (2004) PNAS USA 101:3886-91). […]
# [8] = tested on: P8 peptide; assay: ELISA: IgM binding to P8 peptide-coated plates; details: plate coated with 50 μg/ml P8
# Procedure: FIG. 6C is a bar graph showing specific binding of the P8 peptide to IgM^CM-22. The ELISA plates were coated with 50 μg/ml solution of P8 peptide, followed by addition of IgM^CM-22 or IgM^CM-75 at 1 or 10 μg/ml. IgM binding was detected with a biotinylated rat anti-mouse IgM followed by streptavidin-phosphatase and color reaction. The results are representative of at least three independent experiments.
# as §4
# [9] = tested on: RAG-1^−/− mice; details: IgM-reconstituted sham controls (no ischemia); Zhang et al. (2004); cited from earlier work
# [10] = tested on: non-muscle myosin heavy chain-II (NMHC-II) isoforms A, B and C; assay: ELISA: IgM binding to captured NMHC-II from intestinal lysates; parameters: species or system mouse; details: NMHC captured from jejuneum lysates of RAG-1^−/− mice
# Description: FIG. 8B is a series of graphs showing results of in vitro binding assays of IgM^CM-22 to the isoforms of non-muscle myosin heavy chain-II (NMHC-II). ELISA plates were coated with monoclonal antibodies for 3 different isoforms of NMHC-II (upper left: isoform A, upper right: isoform B, lower left: isoform C and lower right: anti-pan myosin antibody). Bound myosin heavy chain from intestinal lysates was detected by IgM^CM-22 or IgM^CM-31. The results represent mean±standard error of OD 405 nm units and are representative of triplicate samples.
# as §4, with “101:3886-91).” for “101:3886-91). Lysates were prepared as described for immune precipitation (see below). Alkaline-phosphatase labeled goat anti-mouse IgM (Sigma, Mo.) was then used to detect bound IgM.”
# [11] = tested on: antibody deficient mice (RAG-1); assay: Intestinal I/R injury in antibody-deficient (RAG-1) mice reconstituted with hybridoma IgM; format: in vivo, mouse; details: IgM injected intravenously 30 minutes before initial laparotomy, permeability index (FIG. 4)
# Procedure: IgM or saline was injected intravenously 30 minutes before initial laparotomy. At the end of reperfusion, blood is obtained and permeability index is calculated as the ratio of ^125I counts of dried intestine versus that of blood. Values represent means±standard error; n equals the numbers of mice used in experimental groups. 1=WT plus normal saline; 2=RAG plus normal saline; 3=RAG plus IgM hybridoma CM-22; 4=WT sham control.
# This finding was unexpected because they have a normal level of IgM in their blood. These findings led to the hypothesis that a special population of B cells termed B-1 cells are responsible for secreting the pathogenic IgM. […] To identify the specific antibody or antibodies responsible for injury, a panel of hybridoma clones were constructed from an enriched pool of peritoneal B-1 cells harvested from normal mice. The general approach for preparing hybridomas from enriched fraction of peritoneal cells includes harvesting peritoneal cells from mice treated 7 days earlier with IL-10 and subsequently enriched for CD23 negative B cells by negative selection with magnetic beads. Enriched B cells are analyzed by FACS following staining with IgM, Mac-1 and CD23 specific Mab. […]
# Twenty-two IgM-secreting hybridoma clones were analyzed by pooling an equal amount of IgM product from each of the clones. […]
# [12] = peptide mixed with IgM^CM-22 prior to injection in RAG-1^−/− mice
Molecule,"IgM and complement deposition in reperfused jejuneum (immunohistology) [1, 12]","mean pathology score [1, 12]",Kd [2],SPR binding to IgM^CM-31-coupled surface [3],IgM and complement deposition in reperfused tissues (immunohistology) [4],mean pathology score [4],optimal concentration sufficient to block 50-100 μg of IgM^CM-22 (0.1-0.2 μM) [5],IC50 [6],relative binding of phage clone to IgM^CM-22 [7],"IgM and complement C4 and C3 deposition in reperfused jejuneum (immunohistology) ([1]; RAG-1^−/− mice reconstituted with the IgM alone, following RI)",mean pathology score ([1]; RAG-1^−/− mice reconstituted with the antibody alone),IgM binding to P8 peptide-coated plate ([8]; IgM at 1 μg/ml),IgM binding to P8 peptide-coated plate ([8]; IgM at 10 μg/ml),IgM and complement deposition (immunohistology) [9],binding of IgM to all three isoforms of NMHC-II (ELISA) [10],restoration of I/R injury [11]
LMKNMDPLNDNV [N2],no deposition of IgM and complement,13±8,123 ± 61 µM,no binding was observed,blocked,8±5,,,,,,,,,,
NGNNVNGNRNNN [P8],no evidence of IgM or complement binding,6±3,,,no apparent deposits of IgM or complement,5.+−.3,10 µM,~10 µM,bound with the highest efficiency,,,,,,,
B1,,,,,,,,,,co-localization of IgM and complement C4 and C3 within the microvilli,31±13 and 31±10,neither IgM bound above background,significantly more,No binding of IgM or complement,Above background binding,restored injury
